pIC50: −log10 of the molar value. Activity calls are given as the source filed them. No cut-off for these calls is given here.
Columns and labels:
[1] = target: T1, Histone deacetylase 8 (Homo sapiens) (UniProt Q9BY41); test: Inhibition of HDAC8 in human HT-29 cells assessed as acetylated SMC3 levels at 25 uM after 24 hrs by Western blot analysis relative to control; assay type: cell-based
T1 sequence (whole entry): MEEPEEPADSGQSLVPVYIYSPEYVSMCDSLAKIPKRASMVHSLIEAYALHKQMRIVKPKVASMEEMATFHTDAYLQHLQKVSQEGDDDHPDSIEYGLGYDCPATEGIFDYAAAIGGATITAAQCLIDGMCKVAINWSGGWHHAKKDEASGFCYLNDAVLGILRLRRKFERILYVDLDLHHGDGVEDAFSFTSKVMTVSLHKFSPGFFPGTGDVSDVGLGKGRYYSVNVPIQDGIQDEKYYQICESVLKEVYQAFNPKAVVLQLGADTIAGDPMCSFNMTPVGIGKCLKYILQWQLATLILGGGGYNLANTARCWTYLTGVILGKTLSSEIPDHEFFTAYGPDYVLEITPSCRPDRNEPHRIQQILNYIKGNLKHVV

[2] = target: T2, Histone deacetylase (Homo sapiens) (UniProt Q13547+O15379+Q9UBN7+Q92769+Q9UQL6+Q8WUI4+Q9BY41+Q96DB2+P56524+Q9UKV0+Q969S8); test: Inhibition of HDAC in human HT-29 cells assessed as phosphorylated gamma-H2AX levels at 40 nM after 3 days by Western blot analysis relative to control; assay type: cell-based
K562 = test: Induction of cell cycle arrest in human K562 cells assessed as accumulation at G2/M phase at 5 to 10 nM after 24 hrs by propidium iodide-staining based flow cytometry; assay type: functional
[3] = target: T1, Histone deacetylase 8 (Homo sapiens); test: Inhibition of HDAC8 in human HT-29 cells assessed as acetylated SMC3 levels at 25 uM after 6 hrs by Western blot analysis relative to control; assay type: cell-based
[4] = target: T2, Histone deacetylase (Homo sapiens); test: Inhibition of HDAC in human HT-29 cells assessed as phosphorylated gamma-H2AX levels at 80 nM after 3 days by Western blot analysis relative to control; assay type: cell-based
K-562R = test: Potency index, ratio of IC50 for TSA to IC50 for test compound for antiproliferative activity against human K562R cells after 72 hrs by MTS assay; assay type: functional
Homo sapiens = species: Homo sapiens; test: Induction of cell cycle arrest in human BL2 cells assessed as accumulation at G2/M phase after 24 hrs by propidium iodide-staining based flow cytometry; assay type: functional
HT-29 = test: Potency index, ratio of IC50 for TSA to IC50 for test compound for antiproliferative activity against human HT-29 cells after 72 hrs by MTS assay; assay type: functional
[5] = Antiproliferative activity against human BL2 cells after 72 hrs by MTS assay; assay type: functional, cell-based; conditions: BL2, 72 h
Tubulin (Homo sapiens) = Tubulin (Homo sapiens) (UniProt P68371+Q9H4B7+P0DPH7+P68366+Q13509+Q71U36+P04350+Q3ZCM7+P07437+P68363+Q9BQE3+Q6PEY2+Q13885+Q9BVA1+Q9BUF5); test: Inhibition of tubulin polymerization in human K562 cells assessed as disruption of spindle formation at 1 nM after 24 hrs by DAPI-staining based inverted microscopy; assay type: cell-based
U-87 MG = test: Potency index, ratio of IC50 for isoCA4 to IC50 for test compound for antiproliferative activity against human U87 cells after 72 hrs by MTS assay; assay type: functional, U-87MG ATCC
[6] = target: T3, Protein deacetylase HDAC6 (Homo sapiens, UniProt Q9UBN7)
T3 sequence (Q9UBN7 whole entry): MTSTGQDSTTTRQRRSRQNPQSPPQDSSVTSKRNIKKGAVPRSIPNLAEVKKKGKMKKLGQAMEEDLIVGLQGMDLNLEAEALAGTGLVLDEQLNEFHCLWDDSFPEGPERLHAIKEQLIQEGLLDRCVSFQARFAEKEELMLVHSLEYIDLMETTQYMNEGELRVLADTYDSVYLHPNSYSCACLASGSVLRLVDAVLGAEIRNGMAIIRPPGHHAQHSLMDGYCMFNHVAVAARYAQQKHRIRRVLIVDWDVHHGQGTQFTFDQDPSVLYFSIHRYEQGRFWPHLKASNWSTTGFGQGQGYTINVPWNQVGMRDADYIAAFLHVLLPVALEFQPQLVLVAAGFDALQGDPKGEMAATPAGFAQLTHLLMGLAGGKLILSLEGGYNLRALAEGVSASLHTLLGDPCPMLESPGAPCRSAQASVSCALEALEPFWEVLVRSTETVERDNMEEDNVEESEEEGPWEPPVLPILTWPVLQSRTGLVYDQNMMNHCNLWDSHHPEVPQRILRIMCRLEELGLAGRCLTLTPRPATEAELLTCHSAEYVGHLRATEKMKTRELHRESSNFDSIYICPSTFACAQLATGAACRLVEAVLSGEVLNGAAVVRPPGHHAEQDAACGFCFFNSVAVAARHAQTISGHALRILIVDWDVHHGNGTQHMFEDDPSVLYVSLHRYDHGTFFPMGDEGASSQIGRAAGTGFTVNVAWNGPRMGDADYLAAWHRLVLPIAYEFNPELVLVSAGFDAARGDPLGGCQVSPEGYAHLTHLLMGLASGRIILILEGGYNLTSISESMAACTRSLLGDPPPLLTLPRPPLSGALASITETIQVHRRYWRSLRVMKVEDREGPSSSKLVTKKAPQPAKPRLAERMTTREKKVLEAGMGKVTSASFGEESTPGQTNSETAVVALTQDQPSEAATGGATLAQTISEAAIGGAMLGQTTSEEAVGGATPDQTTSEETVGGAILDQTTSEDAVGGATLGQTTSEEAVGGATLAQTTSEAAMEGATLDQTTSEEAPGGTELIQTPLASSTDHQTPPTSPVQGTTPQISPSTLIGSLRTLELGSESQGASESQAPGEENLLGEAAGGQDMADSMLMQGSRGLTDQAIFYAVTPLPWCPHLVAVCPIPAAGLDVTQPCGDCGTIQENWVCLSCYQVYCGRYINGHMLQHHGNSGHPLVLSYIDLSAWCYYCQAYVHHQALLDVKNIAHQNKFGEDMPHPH
Description: Inhibition of human recombinant HDAC6 after 30 mins using fluorogenic substrate by fluorimetric assay

Histone deacetylase 8 = target: T4, Histone deacetylase 8 (Homo sapiens, UniProt Q9BY41); test: Inhibition of human recombinant HDAC8 after 30 mins using fluorogenic substrate by fluorimetric assay
T4 sequence (Q9BY41 whole entry): T1 sequence (whole entry)

fold change (FC) [1]	fold change (FC) [2]	fold change (FC) [3]	fold change (FC) [4]	Activity (Tubulin (Homo sapiens))	pIC50 [6]	SMILES	Activity (K562)	Ratio IC50 (K-562R)	Activity (Homo sapiens)	Ratio IC50 (HT-29)	pIC50 [5]	Ratio IC50 (U-87 MG)	IC50 (Histone deacetylase 8)
5.4	3.2	3.2	14.2	Active	4.82	C=C(c1ccc(OC)c(/C=C/C(=O)NO)c1)c1cc(OC)c(OC)c(OC)c1	Active	60	Active	17	8.00	5	–
–	–	–	–	–	–	C=C(c1ccc(OC)c(O)c1)c1cc(OC)c(OC)c(OC)c1	–	–	–	–	–	–	Not Active

Reference: ChEMBL document CHEMBL4325829, “Design and Synthesis of Tubulin and Histone Deacetylase Inhibitor Based on iso-Combretastatin A-4” (J Med Chem, 2018)
